The results in this text go back to patent publication US12590062B2, “PD-1/PD-L1 inhibitors” (Gilead Sciences, Inc., priority 2017, dated 2026).

One experiment addresses T1, PD-L1 (Homo sapiens, UniProt Q9NZQ7).
T1 construct: determine if they can specifically dimerize the extracellular domains of PD-L1
The experiment is described as follows: PD-L1/PD-L1 dimerization biochemical protein-protein interaction assay (ALPHA). The class given is binding. Particulars: compound-induced PD-L1 dimerization, head prints '1 nM' (0.5 nM His-tagged PD-L1 and 0.5 nM FLAG-tagged PD-L1), read-out: AC50 PDL1 Dimer Alpha 1 nM. As to the method: PD-L1/PD-L1 Dimerization Biochemical Protein-Protein Interaction Assay:
Compounds were tested in biochemical protein-protein interaction assays to determine if they can specifically dimerize the extracellular domains of PD-L1. Dimerization of the proteins (His-tagged PD-L1 and FLAG-tagged PD-L1) is measured using a bead based Amplified Luminescent Proximity Homogeneous Assay (ALPHA) platform. […] Assays are performed in 25 mM Hepes (pH 7.4), 150 mM NaCl, 3.4 mM EDTA, 0.005% Tween 20, and 0.01% BSA. Final protein concentration in the assays were 0.5 nM (His tagged PD-L) and 0.5 nM (FLAG tagged PD-L1). After an assay reaction time of 2 hours at 25° C., 20 μg/mL (final assay concentration) ALPHA assay acceptor beads (anti-His coated) were added and incubated for 60 minutes at 25° C. Binding was measured following a final 60 minute incubation with 40 μg/mL (final assay concentration) ALPHA assay donor beads (anti-FLAG coated). AC50 values were calculated from the fit of the dose-response curves to a four-parameter equation (Table 3).

The target of the next experiment is PD-1/PD-L1 (Homo sapiens, UniProt Q9NZQ7). The experiment can be described thus: PD-1/PD-L1 biochemical protein-protein interaction assay (ALPHA). It counts as binding. Particulars: 0.3 nM His tagged PD-L1, 2.5 nM biotinylated Fc-PD-1, 60 minutes at 25° C., read-out: IC50 PD-L1-PD-1 Alpha IC50-mono PD-L1-fcP-D1. The procedure, abridged: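 IC50 values derive from four-parameter fits of ALPHA signal decrease. Assay: 0.3 nM His-tagged PD-L1 with 2.5 nM biotinylated Fc-PD-1, Hepes pH 7.4 with 0.005% Tween 20 and 0.01% BSA, 60 min at 25° C, then anti-His acceptor and streptavidin donor beads.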

In another experiment the target is T2, PD-1/PD-L1 interaction (Homo sapiens, UniProt Q9NZQ7).
T2 construct: expressed in transfected cells; host or cells: CHO cells (aAPC-PD-L1) co-cultured with Jurkat cells overexpressing PD-1 and an NFAT-luciferase reporter
The experiment can be described thus: PD-1/PD-L1 NFAT reporter co-culture assay. The class given is cell-based. Particulars: Jurkat PD-1 NFAT-luciferase cells co-cultured with aAPC-PD-L1 CHO cells, 6 hrs at 37° C.; read-out: EC50 NFAT Luciferase. The procedure, abridged:
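Compounds are scored by restoration of NFAT-luciferase signal in PD-1-expressing Jurkat cells cultured 6 h at 37 °C on CHO cells presenting anti-CD3 and PD-L1; EC50 values derive from four-parameter curve fitting.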

T2 sequence (Q9NZQ7 19-290): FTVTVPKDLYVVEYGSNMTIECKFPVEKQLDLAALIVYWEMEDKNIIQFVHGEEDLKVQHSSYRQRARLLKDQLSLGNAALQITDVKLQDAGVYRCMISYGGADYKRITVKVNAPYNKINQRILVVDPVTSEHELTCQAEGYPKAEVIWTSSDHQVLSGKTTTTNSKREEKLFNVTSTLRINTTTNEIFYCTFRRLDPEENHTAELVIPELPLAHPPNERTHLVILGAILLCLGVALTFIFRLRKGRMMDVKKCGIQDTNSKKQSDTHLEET
PD-1/PD-L1, sequence (Q9NZQ7 19-238 limits assumed): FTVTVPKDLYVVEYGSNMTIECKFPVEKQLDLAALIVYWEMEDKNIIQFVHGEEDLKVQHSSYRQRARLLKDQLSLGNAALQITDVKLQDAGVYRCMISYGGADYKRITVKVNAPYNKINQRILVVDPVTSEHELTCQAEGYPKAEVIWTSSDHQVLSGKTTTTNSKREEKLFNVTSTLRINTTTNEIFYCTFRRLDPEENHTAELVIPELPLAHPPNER
T1 sequence (Q9NZQ7 19-238 limits assumed): as above
T1 sequence (Q9NZQ7 19-238 limits assumed): as above

`CN1CCCC1c1ccc(-c2cccc(-c3cccc4c3CC[C@@H]4Oc3nc(OCc4cncc(C#N)c4)c(CN[C@@](C)(CO)C(=O)O)cc3Cl)c2Cl)cc1` (stereo partly drawn) [Example 290, (2S)-2-(((5-chloro-6-(((1S)-4-(2-chloro-4′-(1-methylpyrrolidin-2-yl)-[1,1′-biphenyl]-3-yl)-2,3-dihydro-1H-inden-1-yl)oxy)-2-((5-cyanopyridin-3-yl)methoxy)pyridin-3-yl)methyl)amino)-3-hydroxy-2-methylpropanoic acid]: the AC50 (usually the midpoint of the concentration-response curve, whichever way the signal moves) on PD-L1 turned out to be 25.1 nM. In addition, the IC50 (in general, the concentration that gives 50% inhibition) on PD-1/PD-L1 is 0.068 nM. The EC50 (usually the concentration that produces a half-maximal response) at PD-1/PD-L1 interaction was found to be 311 nM.
The like results for `N#Cc1cncc(COc2nc(O[C@H]3CCc4c(-c5cccc(-c6ccc(OCCNCCO)cc6)c5Cl)cccc43)c(Cl)cc2CNC[C@@H](O)CC(=O)O)c1` [Example 291, (S)-4-(((5-chloro-6-(((S)-4-(2-chloro-4′-(2-((2-hydroxyethyl)amino)ethoxy)-[1,1′-biphenyl]-3-yl)-2,3-dihydro-1H-inden-1-yl)oxy)-2-((5-cyanopyridin-3-yl)methoxy)pyridin-3-yl)methyl)amino)-3-hydroxybutanoic acid] were, in that order, 27.5 nM, 0.175 nM and 46 nM.
In the case of `Cc1c(COc2cc(OCc3cncc(C#N)c3)c(CN[C@@](C)(CO)C(=O)O)cc2Cl)cccc1-c1cccc(-c2ccc(CC3CCCN3)cc2)c1C` (stereo partly drawn) [Example 292, (2S)-2-((5-chloro-2-((5-cyanopyridin-3-yl)methoxy)-4-((2,2′-dimethyl-4″-(pyrrolidin-2-ylmethyl)-[1,1′:3′,1″-terphenyl]-3-yl)methoxy)benzyl)amino)-3-hydroxy-2-methylpropanoic acid], at PD-L1, the concentration at half-maximal activity (AC50) was determined as 230 nM. Also, the IC50 at PD-1/PD-L1 was 0.509 nM. In addition, on PD-1/PD-L1 interaction, the EC50 stood at 615 nM.
With `Cc1c(COc2cc(OCc3cncc(C#N)c3)c(CNC[C@@H](O)CC(=O)O)cc2Cl)cccc1-c1cccc(-c2ccc3c(CNC[C@@H](O)CC(=O)O)cccc3c2)c1C` [Example 293, (S)-4-(((6-(3′-((4-((((S)-3-carboxy-2-hydroxypropyl)amino)methyl)-2-chloro-5-((5-cyanopyridin-3-yl)methoxy)phenoxy)methyl)-2,2′-dimethyl-[1,1′-biphenyl]-3-yl)naphthalen-1-yl)methyl)amino)-3-hydroxybutanoic acid], at PD-L1, the AC50 was determined as 125 nM. Further, the IC50 at PD-1/PD-L1 stood at 0.226 nM. The concentration for a half-maximal effect (EC50) at PD-1/PD-L1 interaction was found to be 73 nM.
For `Cc1c(COc2cc(O)c(CNCCCP(=O)(O)O)cc2Cl)cccc1-c1cccc(COc2cc(OCc3cncc(C#N)c3)c(CNCCCP(=O)(O)O)cc2Cl)c1C` [Example 294, (3-((5-chloro-4-((3′-((2-chloro-5-((5-cyanopyridin-3-yl)methoxy)-4-(((3-phosphonopropyl)amino)methyl)phenoxy)methyl)-2,2′-dimethyl-[1,1′-biphenyl]-3-y)methoxy)-2-hydroxybenzyl)amino)propyl)phosphonic acid], the concentration at half-maximal activity (AC50) at PD-L1 amounted to 547 nM. Further, the IC50 at PD-1/PD-L1 was determined as 9.24 nM. Further, the EC50 on PD-1/PD-L1 interaction was found to be 714 nM.
The like results for `C[C@@](CO)(NCc1cc(Cl)c(O[C@H]2CCc3c(-c4cccc5c4CC[C@@H]5Oc4nc(OCc5cncc(C#N)c5)c(CNCCO)cc4Cl)cccc32)nc1OCc1cncc(C#N)c1)C(=O)O` [Example 295] were, in that order, 67.6 nM, 0.312 nM and 279 nM.
Turning to `Cc1c(COc2cc(OCc3cncc(C#N)c3)c(CN[C@@](C)(CO)C(=O)O)cc2Cl)cccc1-c1cccc(-c2cnc3c(Cl)cc(CN[C@@](C)(CO)C(=O)O)cc3c2)c1C` [Example 296, (S)-2-(((3-(3′-((4-((((S)-2-carboxy-1-hydroxypropan-2-yl)amino)methyl)-2-chloro-5-((5-cyanopyridin-3-yl)methoxy)phenoxy)methyl)-2,2′-dimethyl-[1,1′-biphenyl]-3-yl)-8-chloroquinolin-6-yl)methyl)amino)-3-hydroxy-2-methylpropanoic acid], the concentration at half-maximal activity (AC50) at PD-L1 came to 108 nM. Further, the IC50 at PD-1/PD-L1 worked out at 0.064 nM. The EC50 on PD-1/PD-L1 interaction stood at 844 nM.
The like results for `Cc1c(COc2cc(OCc3cncc(C#N)c3)c(CNC[C@@H](O)CC(=O)O)cc2Cl)cccc1-c1cccc(-c2cnc3c(Cl)cc(CNC[C@@H](O)CC(=O)O)cc3c2)c1C` [Example 297, (S)-4-(((3-(3′-((4-((((S)-3-carboxy-2-hydroxypropyl)amino)methyl)-2-chloro-5-((5-cyanopyridin-3-yl)methoxy)phenoxy)methyl)-2,2′-dimethyl-[1,1′-biphenyl]-3-yl)-8-chloroquinolin-6-yl)methyl)amino)-3-hydroxybutanoic acid] were, in that order, 187 nM, 0.187 nM and 266 nM.
As for `Cc1c(COc2cc(OCc3cncc(C#N)c3)c(CN[C@@](C)(CO)C(=O)O)cc2Cl)cccc1-c1cccc(-c2ccc3[nH]c([C@@H]4CCCN4)nc3c2)c1C` [Example 299, (S)-2-((5-chloro-2-((5-cyanopyridin-3-yl)methoxy)-4-((2,2′-dimethyl-3′-(2-((S)-pyrrolidin-2-yl)-1H-benzo[d]imidazol-5-yl)-[1,1′-biphenyl]-3-yl)methoxy)benzyl)amino)-3-hydroxy-2-methylpropanoic acid], the AC50 on PD-L1 came to 162 nM. Moreover, on PD-1/PD-L1, the IC50 worked out at 0.761 nM. On PD-1/PD-L1 interaction, the EC50 was 326 nM.
As to `Cc1c(COc2cc(OCc3cncc(C#N)c3)c(CNC[C@@H](O)CC(=O)O)cc2Cl)cccc1-c1cccc(-c2ccc(CCN3CCCC3)cc2)c1C` [Example 300, (S)-4-((5-chloro-2-((5-cyanopyridin-3-yl)methoxy)-4-((2,2′-dimethyl-4″-(2-(pyrrolidin-1-yl)ethyl)-[1,1′:3′,1″-terphenyl]-3-yl)methoxy)benzyl)amino)-3-hydroxybutanoic acid], at PD-L1, the AC50 is 223 nM. The concentration for half-maximal inhibition (IC50) at PD-1/PD-L1 was determined as 0.673 nM. For the same compound, the concentration for a half-maximal effect (EC50) on PD-1/PD-L1 interaction is 3720 nM.
As to `Cc1c(COc2cc(OCc3cncc(C#N)c3)c(CN[C@@](C)(CO)C(=O)O)cc2Cl)cccc1-c1c(F)ccc(-c2ccc(CN(C)C)cc2)c1Cl` [Example 301, (2S)-2-((5-chloro-4-((2′-chloro-4″-((dimethylamino)methyl)-6′-fluoro-2-methyl-[1,1′:3′,1″-terphenyl]-3-yl)methoxy)-2-((5-cyanopyridin-3-yl)methoxy)benzyl)amino)-3-hydroxy-2-methylpropanoic acid], the AC50 on PD-L1 worked out at 95.9 nM. Moreover, the IC50 at PD-1/PD-L1 was determined as 0.109 nM. Further, the EC50 on PD-1/PD-L1 interaction amounted to 1020 nM.
As for `Cc1c(COc2cc(OCc3cncc(C#N)c3)c(CN[C@](C)(CO)C(=O)O)cc2Cl)cccc1-c1cccc(-c2ccc(OC3CN4CCC3CC4)cc2)c1C` (stereo partly drawn) [Example 302, (2R)-2-((5-chloro-2-((5-cyanopyridin-3-yl)methoxy)-4-((2,2′-dimethyl-4″-(quinuclidin-3-yloxy)-[1,1′:3′,1″-terphenyl]-3-yl)methoxy)benzyl)amino)-3-hydroxy-2-methylpropanoic acid], the AC50 at PD-L1 was 76.2 nM. Moreover, on PD-1/PD-L1, the IC50 came to 0.348 nM. Further, the EC50 at PD-1/PD-L1 interaction turned out to be 283 nM.
